# Test results as given in patent publication US8329695B2, “Crystalline form of the free base N-[trans-4-[4-(cyclopropylmethyl)-1-piperazinyl]cyclohexyl]-4-[[(7r)-7-ethyl-5,6,7,8-tetrahydro-5-methyl-8-(1-methylethyl)-6-oxo-2-pteridinyl]amino]-3-methoxy-benzamide” (Boehringer Ingelheim International GmbH, priority 2007, dated 2012).
# Legend:
# Format in all cases: physicochemical
# [1] = Solid state stability of the trihydrochloride salt forms; conditions: humidity lowered down to 10% r.h.
# Description: Under standard conditions the crystalline trihydrochloride salt form of N-[trans-4-[4-(cyclopropylmethyl)-1-piperazinyl]cyclohexyl]-4-[[(7R)-7-ethyl-5,6,7,8-tetrahydro-5-methyl-8-(1-methylethyl)-6-oxo-2-pteridinyl]amino]-3-methoxy-benzamide is present in the form of an hydrate and is obtainable after drying with a changing stoichiometry (1-3 water equivalents). The hydrate with a stoichiometry close to a trihydrate seems to be the stable hydrated form under ambient conditions and can be obtained after conditioning of the dried material. The crystal water is tightly bound.
# The respective anhydrous form, obtained by heating a sample up to 140° C., is not stable.
# [2] = Intrinsic dissolution rate in aqueous media (rotating disc method); conditions: 37° C., 200 rpm
# Description: The intrinsic dissolution rate of this crystalline form of the compound […] which maintains a constant surface area. 5 mg drug substance is compressed to form a disc at 356.1 N for 60 s. These discs are mounted to specially designed sample holders which fit into a Sotax dissolution tester. The dissolution media (37° C.) are stirred at 200 rpm. Samples are automatically withdrawn every second minute from the dissolution vessel and assayed via UV spectrophotometry. The intrinsic dissolution rate expressed in μg/cm^2/min is calculated using the slope of the concentration versus time plot and from the linear portion of the slope of the dissolution curve, volume of dissolution medium (35 ml) and area (diameter: 2 mm) of the exposed disk.
# [3] = Hygroscopical behaviour, water sorption isotherms (DVS-1); conditions: 25° C.
# Description: To study the hygroscopical behaviour of this material, sorption isotherms are registered on a DVS-1 water sorption monitor from Surface Measurement Systems. Adsorption and desorption isotherms are performed at 25° C. with 10% r.h. step intervals ranging from 10% r.h. up to 90% r.h.
# [4] = Solubility in aqueous media
# Description: Solubility in Aqueous Media
smiles,measurement,setting,value
"CC[C@@H]1C(=O)N(C)c2cnc(Nc3ccc(C(=O)N[C@H]4CC[C@H](N5CCN(CC6CC6)CC5)CC4)cc3OC)nc2N1C(C)C.Cl.Cl.Cl.O.O.O [formula (I) trihydrochloride, N-[trans-4-[4-(cyclopropylmethyl)-1-piperazinyl]cyclohexyl]-4-[[(7R)-7-ethyl-5,6,7,8-tetrahydro-5-methyl-8-(1-methylethyl)-6-oxo-2-pteridinyl]amino]-3-methoxy-benzamide trihydrochloride trihydrate]",weight loss on lowering the humidity,[1],does not result in a significant weight loss
"CC[C@@H]1C(=O)N(C)c2cnc(Nc3ccc(C(=O)N[C@H]4CC[C@H](N5CCN(CC6CC6)CC5)CC4)cc3OC)nc2N1C(C)C [formula (I), N-[trans-4-[4-(cyclopropylmethyl)-1-piperazinyl]cyclohexyl]-4-[[(7R)-7-ethyl-5,6,7,8-tetrahydro-5-methyl-8-(1-methylethyl)-6-oxo-2-pteridinyl]amino]-3-methoxy-benzamide]",dissolution rate,[2]; pH of aqueous medium 1.1,6600 μg/cm^2/min
same,dissolution rate,[2]; pH of aqueous medium 3.1,2760 μg/cm^2/min
same,dissolution rate,[2]; pH of aqueous medium 4.1,1810 μg/cm^2/min
same,dissolution rate,[2]; pH of aqueous medium 5.0,1390 μg/cm^2/min
same,dissolution rate,[2]; pH of aqueous medium 6.1,1180 μg/cm^2/min
same,dissolution rate,[2]; pH of aqueous medium 7.5,<50 μg/cm^2/min
same,hygroscopicity (in words),[3]; 10% r.h. up to 90% r.h.,not hygroscopic
same,reversibility of the water-uptake,[3]; adsorption and desorption isotherms,completely reversible
same,uptake of water,[3]; over the range 10-90% r.h.,approx. 0.7%
same,solubility,"[4]; Sörensen buffer, aqueous buffer, thermodynamic from solid, Sörensen pH 9.0, pH of the saturated solution 9.2",3 µg/mL
same,solubility,"[4]; Sörensen buffer, aqueous buffer, thermodynamic from solid, Sörensen pH 10, pH of the saturated solution 9.9",7 µg/mL
same,solubility,"[4]; Sörensen buffer, aqueous buffer, thermodynamic from solid, Sörensen pH 11, pH of the saturated solution 10.5",9 µg/mL
same,solubility,"[4]; aqueous buffer, thermodynamic from solid, McIlvaine buffer pH 2.2, pH of the saturated solution 2.8",> 10000 µg/mL
same,solubility,"[4]; aqueous buffer, thermodynamic from solid, McIlvaine buffer pH 3.0, pH of the saturated solution 3.6",> 10000 µg/mL
same,solubility,"[4]; aqueous buffer, thermodynamic from solid, McIlvaine buffer pH 4.0, pH of the saturated solution 4.6",> 10000 µg/mL
same,solubility,"[4]; aqueous buffer, thermodynamic from solid, McIlvaine buffer pH 5.0, pH of the saturated solution 5.5",> 10000 µg/mL
same,solubility,"[4]; aqueous buffer, thermodynamic from solid, McIlvaine buffer pH 6.0, pH of the saturated solution 6.3",> 10000 µg/mL
same,solubility,"[4]; aqueous buffer, thermodynamic from solid, McIlvaine buffer pH 7.0, pH of the saturated solution 7.2",> 10000 µg/mL
same,solubility,"[4]; aqueous buffer, thermodynamic from solid, McIlvaine buffer pH 7.4, pH of the saturated solution 7.4",2500 µg/mL
same,solubility profile in aqueous media (conclusion in words),[4]; aqueous media of Table 1,good solubility profile
same,solubility,"[4]; pH 1.1, simulated gastric fluid, thermodynamic from solid, medium 0.1 N HCl, pH of the saturated solution 1.1",> 10000 µg/mL
same,solubility,"[4]; pH 6.8, simulated gastric fluid, thermodynamic from solid, medium 0.01 N HCl, pH of the saturated solution 6.8",7600 µg/mL
same,solubility,"[4]; pH 9.6, thermodynamic from solid, medium water, pH of the saturated solution 9.6",110 µg/mL
same,solubility,"[4]; pH 11.7, aqueous buffer, thermodynamic from solid, 0.01 N NaOH, pH of the saturated solution 11.7",8 µg/mL
same,solubility,"[4]; pH 12.8, aqueous buffer, thermodynamic from solid, 0.01 N NaOH (second line), pH of the saturated solution 12.8",3 µg/mL
same,solubility,"[4]; phosphate buffer, aqueous buffer, thermodynamic from solid, Phosphate pH 6.0, pH of the saturated solution 6.5",> 10000 µg/mL
same,solubility,"[4]; phosphate buffer, aqueous buffer, thermodynamic from solid, Phosphate pH 7.0, pH of the saturated solution 7.3",10000 µg/mL
same,solubility,"[4]; phosphate buffer, aqueous buffer, thermodynamic from solid, Phosphate pH 8.0, pH of the saturated solution 8.1",36 µg/mL
